Measurements reported in patent publication US6447748B1, “Benzamide compounds for cancer imaging and therapy” (Research Corporation Technologies, Inc., priority 1993, dated 2002).
“And” between values parts separate entries of the source, which are not always exact repeats. Equal entries are not always repeated.

Experiment: Biodistribution of 2-[125I]BP and 3-[125I]BP in Sprague Dawley rats
Format: in vivo
Details: for Biodistribution Blood / Biodistribution Brain / Biodistribution Heart / Biodistribution Kidney / Biodistribution Liver / Biodistribution Lung / Biodistribution Muscle / Biodistribution Spleen / Biodistribution Thyroid: average of four rats
Experimental: A similar procedure was performed with 2-[^125I]BP and 3-[^125I]BP but blood samples were only collected at 1, 6 and 24 hours.

Compound	clearance	Biodistribution Blood (1 hr.)	Biodistribution Brain (1 hr.)	Biodistribution Heart (1 hr.)	Biodistribution Kidney (1 hr.)	Biodistribution Liver (1 hr.)	Biodistribution Lung (1 hr.)	Biodistribution Muscle (1 hr.)	Biodistribution Spleen (1 hr.)	Biodistribution Thyroid (1 hr.)	Biodistribution Blood (6 hr.)	Biodistribution Brain (6 hr.)	Biodistribution Heart (6 hr.)	Biodistribution Kidney (6 hr.)	Biodistribution Liver (6 hr.)	Biodistribution Lung (6 hr.)	Biodistribution Muscle (6 hr.)	Biodistribution Spleen (6 hr.)	Biodistribution Thyroid (6 hr.)	Biodistribution Blood (24 hr.)	also measured
O=C(NC1CCN(Cc2ccccc2)CC1)c1ccccc1[125I] [2-[^125I]BP, ^125I-(N-benzylpiperidin-4-yl)-2-iodobenzamide]	fast clearance from the blood and normal organs	2.06 ± 0.42 % ID/whole organ	0.48 ± 0.12 % ID/whole organ	0.17 ± 0.03 % ID/whole organ	1.68 ± 0.08 % ID/whole organ	22.36 ± 1.29 % ID/whole organ	1.06 ± 0.21 % ID/whole organ	16.15 ± 2.13 % ID/whole organ	0.32 ± 0.07 % ID/whole organ	0.14 ± 0.04 % ID/whole organ	1.30 ± 0.12 % ID/whole organ	0.05 ± 0.01 % ID/whole organ	0.05 ± 0.00 % ID/whole organ	0.39 ± 0.06 % ID/whole organ	6.07 ± 0.18 % ID/whole organ	0.21 ± 0.02 % ID/whole organ	6.75 ± 0.32 % ID/whole organ	0.12 ± 0.01 % ID/whole organ	1.91 ± 0.23 % ID/whole organ	0.50 ± 0.05 % ID/whole organ	Biodistribution Brain (24 hr.): 0.01 ± 0.00 % ID/whole organ; Biodistribution Heart (24 hr.): 0.01 ± 0.00 % ID/whole organ; Biodistribution Kidney (24 hr.): 0.05 ± 0.01 % ID/whole organ; Biodistribution Liver (24 hr.): 0.59 ± 0.02 % ID/whole organ; Biodistribution Lung (24 hr.): 0.04 ± 0.00 % ID/whole organ; Biodistribution Muscle (24 hr.): 1.95 ± 0.11 % ID/whole organ; Biodistribution Spleen (24 hr.): 0.02 ± 0.00 % ID/whole organ; Biodistribution Thyroid (24 hr.): 2.11 ± 0.35 % ID/whole organ
O=C(NC1CCN(Cc2ccccc2)CC1)c1cccc([125I])c1 [3-[^125I]BP, ^125I-(N-Benzylpiperidin-4-yl)-3-iodobenzamide]	fast clearance from the blood	0.75 % ID/whole organ and 0.75 ± 0.05 % ID/whole organ	0.61 ± 0.04 % ID/whole organ	0.15 ± 0.01 % ID/whole organ	3.49 ± 0.23 % ID/whole organ	13.35 ± 0.62 % ID/whole organ	0.82 ± 0.07 % ID/whole organ	9.36 ± 0.58 % ID/whole organ	0.47 ± 0.02 % ID/whole organ	0.13 ± 0.02 % ID/whole organ	0.55 ± 0.13 % ID/whole organ	0.53 ± 0.26 % ID/whole organ	0.07 ± 0.01 % ID/whole organ	2.25 ± 0.16 % ID/whole organ	9.06 ± 0.71 % ID/whole organ	0.43 ± 0.05 % ID/whole organ	1.23 ± 0.49 % ID/whole organ	0.37 ± 0.05 % ID/whole organ	0.53 ± 0.26 % ID/whole organ	0.52 ± 0.05 % ID/whole organ	Biodistribution Brain (24 hr.): 0.81 ± 0.07 % ID/whole organ; Biodistribution Heart (24 hr.): 0.15 ± 0.01 % ID/whole organ; Biodistribution Kidney (24 hr.): 1.75 ± 0.13 % ID/whole organ; Biodistribution Liver (24 hr.): 6.65 ± 1.63 % ID/whole organ; Biodistribution Lung (24 hr.): 1.05 ± 0.04 % ID/whole organ; Biodistribution Muscle (24 hr.): 03.7 ± 0.44 % ID/whole organ; Biodistribution Spleen (24 hr.): 0.65 ± 0.08 % ID/whole organ; Biodistribution Thyroid (24 hr.): 3.43 ± 0.21 % ID/whole organ
